Source: patent US20260166021A1, “POLYMORPHIC FORMS OF A SOLUBLE EPOXIDE HYDROLASE INHIBITOR AND FORMULATIONS THEREOF” (EicOsis, LLC, priority 2022, published 2026)

How the values were obtained:
[1] = Kinetic solubility in sodium lauryl sulfate (SLS) 60 mM, with XRD of remaining solid; type: physicochemical; details: room temperature
Description: The mixture was stirred at room temperature with astir bar. The samples (n=3) were collected at each predetermined time points (5, 10, 15, 20, 30, 60, 90, 120, and 180 minutes) and centrifuged. The filtrate was analyzed by H PLC to determine solubility, and the remaining solid was analyzed by XRD as appropriate. Three replicates were performed for each condition.
The advantages of achieving higher degree of supersaturation from milled material (by providing larger surface area) and amorphous material (by providing higher solubility) were offset by phase transformation from Form D to Pattern C (i.e. hydrate form).
In each figure, the top spectrum corresponds to pure Form C, the second figure from the top of the figure corresponds to pure Form D, the third spectrum from the top of the figure corresponds to solid collected following 5 minutes of solubilization, the fourth spectrum from the top corresponds to solid collected following 60 minutes of solubilization, the fifth spectrum from the top corresponds to solid collected following 90 minutes of solubilization, and the bottom spectrum corresponds to solid collected following 180 minutes of solubilization. As indicated by these XRD data, the milled and amorphous materials were converted into Pattern C within 5 min after exposure to the dissolution medium. […]

[2] = Bulk and tapped density (tap density tester); type: physicochemical
Source text: Before milling, Form D was screened through a 30-micron mesh sieve. Then, Form D micronized using a 2-inch jet mill 70 psig feed pressure, 40 psig grinding pressure, and a 4.3 g/min powder feed rate. The micronization process provided a 69% yield and 95.6% crystallinity relative to the unmilled material.

## CC[C@H](C)C(=O)N1CCC(NC(=O)Nc2ccc(OC(F)(F)F)c(F)c2)CC1 [unmilled Form D, (S)-1-(3-fluoro-4-(trifluoromethoxy)phenyl)-3-(1-(2-methylbutanoyl)piperidin-4-yl)urea]
[1]
  time to full transition to the hydrate form (Form C): 60 min
[2]
  bulk density: 0.54 g/mL
  tapped density: 0.61 g/mL
